Reference: patent publication US10105357B2, “Indication of antibiotic drugs for preparation of cancer inhibition pharmaceutical composition” (LAUNX BIOMEDICAL CO., LTD., priority 2014, dated 2018)
Like-named read-outs stand apart in the source and are kept apart here.

Legend:
[1] = test system: HI650 (Lung Adenocarcinoma); assay: Cell viability analysis, lung cancer HI650; assay type: cell-based, human; details: Homo sapiens, NCI-H1650, 72 h
[2] = test system: A549 (Lung Adenocarcinoma); assay: Cell viability analysis, lung cancer A549; assay type: cell-based, human; details: Homo sapiens, A549, 72 h
[3] = test system: AGS (Gastric Adenocarcinoma); assay: Cell viability analysis, gastric cancer AGS; assay type: cell-based, human; details: Homo sapiens, 72 h
[4] = test system: MKN-45 (Gastric Adenocarcinoma); assay: Cell viability analysis, gastric cancer MKN-45; assay type: cell-based, human; details: Homo sapiens, MKN-45, 72 h
[5] = test system: Hep3B (hepatocellular carcinoma); assay: Cell viability analysis, hepatic cancer Hep3B; assay type: cell-based, human; details: Homo sapiens, Hep3B, 72 h, read-out: The results of antibiotic drug inhibiting cancer cell lines (cell viability analysis), Hep3B
[6] = test system: LoVo (Colorectal Adenocarcinoma); assay: Cell viability analysis, colon cancer LoVo; assay type: cell-based, human; details: Homo sapiens, LoVo, 72 h
[7] = test system: A375 (Amelanotic Melanoma); assay: Cell viability analysis, skin cancer A375; assay type: cell-based, human; details: Homo sapiens, A-375, 72 h
[8] = test system: BCC (basal cell carcinoma); assay: Cell viability analysis, skin cancer BCC; assay type: cell-based, human; details: Homo sapiens, 72 h, read-out: The results of antibiotic drug inhibiting cancer cell lines (cell viability analysis), BCC
[9] = test system: HeLa (Cervix Adenocarcinoma); assay: Cell viability analysis, cervical cancer HeLa; assay type: cell-based, human; details: Homo sapiens, HeLa, 72 h
[10] = test system: C-33A (Cervical carcinoma); assay: Cell viability analysis, cervical cancer C-33A; assay type: cell-based, human; details: Homo sapiens, C-33-A, 72 h, read-out: The results of antibiotic drug inhibiting cancer cell lines (cell viability analysis), C-33A
[11] = test system: PC3 (p53−) (Prostate Adenocarcinoma); assay: Cell viability analysis, prostate cancer PC3; assay type: cell-based, human; details: Homo sapiens, 72 h
[12] = test system: TSGH-8301 (Urinary Bladder Carcinoma); assay: Cell viability analysis, bladder cancer TSGH-8301; assay type: cell-based, human; details: Homo sapiens, 72 h
[13] = test system: T24; assay: Cell viability analysis, bladder cancer T24; assay type: cell-based, human; details: Homo sapiens, T-24, 72 h, read-out: The results of antibiotic drug inhibiting cancer cell lines (cell viability analysis), T24
[14] = test system: MCF7 (Mammary Gland, Adenocarcinoma); assay: Cell viability analysis, breast cancer MCF7; assay type: cell-based, human; details: Homo sapiens, MCF7, 72 h
[15] = test system: MDA-MB-231 (Mammary Gland, Adenocarcinoma); assay: Cell viability analysis, breast cancer MDA-MB-231; assay type: cell-based, human; details: Homo sapiens, MDA-MB-231, 72 h, read-out: The results of antibiotic drug inhibiting cancer cell lines (cell viability analysis), MDA-MB231
[16] = test system: BxPC-3; assay: Cell viability analysis, pancreatic cancer BxPC-3; assay type: cell-based, human; details: Homo sapiens, BXPC-3, 72 h, read-out: The results of antibiotic drug inhibiting cancer cell lines (cell viability analysis), BxPC-3
[17] = test system: AsPC-1; assay: Cell viability analysis, pancreatic cancer AsPC-1; assay type: cell-based, human; details: Homo sapiens, ASPC1, 72 h, read-out: The results of antibiotic drug inhibiting cancer cell lines (cell viability analysis), AsPC-1
[18] = test system: NIH: OVCAR-3; assay: Cell viability analysis, ovarian cancer NIH: OVCAR-3; assay type: cell-based, human; details: Homo sapiens, OVCAR-3, 72 h, read-out: The results of antibiotic drug inhibiting cancer cell lines (cell viability analysis), NIH-OVCAR-3
[19] = test system: TOV-21G; assay: Cell viability analysis, ovarian cancer TOV-21G; assay type: cell-based, human; details: Homo sapiens, TOV21G, 72 h, read-out: The results of antibiotic drug inhibiting cancer cell lines (cell viability analysis), TOV-21G
[20] = test system: SAS (Tongue squamous cell carcinoma); assay: Cell viability analysis, tongue cancer SAS; assay type: cell-based, human; details: Homo sapiens, 72 h, read-out: The results of antibiotic drug inhibiting cancer cell lines (cell viability analysis), SAS
[21] = test system: U-2OS; assay: Cell viability analysis, osteosarcoma U-2OS; assay type: cell-based, human; details: Homo sapiens, U2OS, 72 h, read-out: The results of antibiotic drug inhibiting cancer cell lines (cell viability analysis), U2OS
[22] = test system: 786-O (Renal adenocarcinoma); assay: Cell viability analysis, renal cancer 786-O; assay type: cell-based, human; details: Homo sapiens, 786-0, 72 h, read-out: The results of antibiotic drug inhibiting cancer cell lines (cell viability analysis), 786-O
[23] = test system: HL-60 (Acute Promyelocytic Leukemia); assay: Cell viability analysis, leukemia HL-60; assay type: cell-based, human; details: Homo sapiens, HL-60, 72 h, read-out: cell viability (survival rate), HL-60, drug 10 μM, 72 hours, WST-1, OD450 nm
[24] = test system: HCT116 (p53+) (Colorectal Carcinoma)

Cc1ncc([N+](=O)[O-])n1CCO [Metronidazole (Flagyl), Metronidazole]
viability at 10 µM ([1]; read-out: The results of antibiotic drug inhibiting cancer cell lines (cell viability analysis), H1650, H1650, repeated experiment): 87.2% | viability at 10 µM ([1]; read-out: cell viability (survival rate), H1650, drug 10 μM, 72 hours, WST-1, OD450 nm): 94.9% | viability at 10 µM ([2]; read-out: The results of antibiotic drug inhibiting cancer cell lines (cell viability analysis), A549, A549, repeated experiment): 97.7% | viability at 10 µM ([2]; read-out: cell viability (survival rate), A549, drug 10 μM, 72 hours, WST-1, OD450 nm): 36.5% | viability at 10 µM ([3]; read-out: The results of antibiotic drug inhibiting cancer cell lines (cell viability analysis), AGS, repeated experiment): 113% | viability at 10 µM ([3]; read-out: cell viability (survival rate), AGS, drug 10 μM, 72 hours, WST-1, OD450 nm): 90.5% | viability at 10 µM ([4]; read-out: The results of antibiotic drug inhibiting cancer cell lines (cell viability analysis), MKN-45, MKN-45, repeated experiment): 108% | viability at 10 µM ([4]; read-out: cell viability (survival rate), MKN-45, drug 10 μM, 72 hours, WST-1, OD450 nm): 57.7% | viability at 10 µM [5]: 92.3% | viability at 10 µM ([6]; read-out: The results of antibiotic drug inhibiting cancer cell lines (cell viability analysis), LoVo, repeated experiment): 118% | viability at 10 µM ([6]; read-out: cell viability (survival rate), LoVo, drug 10 μM, 72 hours, WST-1, OD450 nm): 61.1% | viability at 10 µM ([7]; read-out: The results of antibiotic drug inhibiting cancer cell lines (cell viability analysis), A375, A375, repeated experiment): 74.7% | viability at 10 µM ([7]; read-out: cell viability (survival rate), A375, drug 10 μM, 72 hours, WST-1, OD450 nm): 56.4% | viability at 10 µM [8]: 68.2% | viability at 10 µM ([9]; read-out: The results of antibiotic drug inhibiting cancer cell lines (cell viability analysis), HeLa, repeated experiment): 75.3% | viability at 10 µM ([9]; read-out: cell viability (survival rate), HeLa, drug 10 μM, 72 hours, WST-1, OD450 nm): 90.7% | viability at 10 µM [10]: 114% | viability at 10 µM ([11]; read-out: The results of antibiotic drug inhibiting cancer cell lines (cell viability analysis), PC-3, PC-3, repeated experiment): 95.6% | viability at 10 µM ([11]; read-out: cell viability (survival rate), PC3, drug 10 μM, 72 hours, WST-1, OD450 nm): 40.9% | viability at 10 µM ([12]; read-out: The results of antibiotic drug inhibiting cancer cell lines (cell viability analysis), TSGH-8301, TSGH-8301, repeated experiment): 92.4% | viability at 10 µM ([12]; read-out: cell viability (survival rate), TSGH, drug 10 μM, 72 hours, WST-1, OD450 nm): 62% | viability at 10 µM [13]: 93.8% | viability at 10 µM ([14]; read-out: The results of antibiotic drug inhibiting cancer cell lines (cell viability analysis), MCF-7, MCF-7, repeated experiment): 77.3% | viability at 10 µM ([14]; read-out: cell viability (survival rate), MCF7, drug 10 μM, 72 hours, WST-1, OD450 nm): 43.8% | viability at 10 µM [15]: 93.3% | viability at 10 µM [16]: 83.6% | viability at 10 µM [17]: 83.1% | viability at 10 µM [18]: 110% | viability at 10 µM [19]: 95.8% | viability at 10 µM [20]: 112% | viability at 10 µM [21]: 99.6% | viability at 10 µM [22]: 92% | viability at 10 µM [23]: 90.8% | viability [24]: 98.9%
